Source: US20210171554A1, “BENZOTHIOPHENE ESTROGEN RECEPTOR MODULATORS TO TREAT MEDICAL DISORDERS” (G1 Therapeutics, Inc., priority 2018, published 2021)

How the values were obtained:
[1] = target: T1, human estrogen receptor (ERα) (Homo sapiens, UniProt P03372); assay: Human ERα Reporter Assay (Indigo Biosciences, antagonist mode); format: cell-based; conditions: antagonist activity, reporter cells with 17β-estradiol 8E-10 M, 24 hours
T1 construct: purchased Indigo Biosciences #1B00401
T1 sequence (P03372 1-595): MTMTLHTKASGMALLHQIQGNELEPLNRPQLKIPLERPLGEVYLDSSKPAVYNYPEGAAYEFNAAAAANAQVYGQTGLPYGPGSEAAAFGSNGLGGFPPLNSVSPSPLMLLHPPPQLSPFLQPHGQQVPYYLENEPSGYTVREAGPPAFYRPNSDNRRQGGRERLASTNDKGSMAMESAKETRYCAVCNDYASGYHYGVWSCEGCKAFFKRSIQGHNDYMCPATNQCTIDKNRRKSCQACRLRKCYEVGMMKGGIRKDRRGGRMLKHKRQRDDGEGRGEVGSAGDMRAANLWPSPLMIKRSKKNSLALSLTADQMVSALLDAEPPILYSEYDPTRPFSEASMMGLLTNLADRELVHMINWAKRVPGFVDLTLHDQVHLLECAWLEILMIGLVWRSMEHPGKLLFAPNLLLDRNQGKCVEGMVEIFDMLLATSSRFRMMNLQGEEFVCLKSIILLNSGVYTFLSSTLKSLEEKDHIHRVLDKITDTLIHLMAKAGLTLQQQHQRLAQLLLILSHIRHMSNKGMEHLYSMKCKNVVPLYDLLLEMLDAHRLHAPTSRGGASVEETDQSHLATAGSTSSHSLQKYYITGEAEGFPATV
Method: All reagents used in this assay was supplied in the Human ERα Reporter Assay by Indigo Biosciences #1B00401. In an effort to screen selective estrogen receptor degraders (SERDs), the Human ERα Reporter Assay, supplied by Indigo Biosciences, was utilized to quantify antagonist functional activity against the human estrogen receptor. Reporter cells were thawed at 37° C. and added to pre-warmed to 37° C. cell recovery medium (CRM). Stock concentration of 17β-estradiol was serially diluted in CRM. Diluted 17β-estradiol was added to CRM containing reporter cells resulting in a working concentration of 1.6 nM (2×). Cells plus 17β-estradiol were dispensed in a kit-supplied white walled 96-well plate. Concentrated stocks of test compounds were diluted to 2× working concentrations in cell screening medium (CSM). 2× concentrated compounds were added to the plated cells in a dose-dependent manner resulting in a final concentration range of 1E-11 to 1E-5 M and a final […] concentration of 8E-10 M. Assay plates were incubated for 24 hours in a humidified 37° C. incubator. Culture medium was removed from the assay plates by inversion. Detection substrate and buffer was warmed to room temperature, mixed thoroughly, and immediately added to the assay plates. Assay plates were incubated for 15 minutes at room temperature protected from light. Luminescence was measured in a Synergy HTX luminescence plate reader. Data is processed utilizing GraphPad Prism 7 by graphing the relative light units measured at each compound concentration.
(§1) In the below table for the Estrogen Receptor Degradation Assay and the Human ERα Reporter Assay: […]

[2] = target: T2, estrogen receptor (Homo sapiens, UniProt P03372); assay: Estrogen Receptor (ER) Degradation Assay (In-Cell Western, MCF7 cells); format: cell-based; parameters: key to % Estrogen Receptor Remaining: **** denotes 0-0% Estrogen Receptor remaining; *** denotes 417% Estrogen Receptor remaining; ** denotes 719% Estrogen Receptor remaining; * denotes 9110% Estrogen Receptor remaining; conditions: for DC50: 24 hours incubation, In-Cell Western, read-out: Estrogen Receptor Degradation Assay IC50; for % Estrogen Receptor Remaining: vehicle set to 100% ER
T2 construct: MCF7 cells, which are estrogen receptor positive; endogenous in cells; host or cells: MCF7
T2 sequence (P03372 1-595): T1 sequence (P03372 1-595)
Method: A screening strategy was implemented utilizing an In-Cell Western assay to measure their ability to degrade the estrogen receptor in vitro. MCF7 cells, which are estrogen receptor positive, were plated at a cell density of […] into black walled clear bottom 96-well plates. Cells were incubated in phenol red free Dulbecco's Modified Eagle Media (DMEM) supplemented with 8% charcoal-stripped fetal bovine calf serum for 24 hours in a humidified 37° C. incubator. Concentrated stock compounds were diluted to 10× in complete media. Compounds were added to the plated cells in a dose-dependent manner ranging from 1E-12 to 1E-05 M and incubated for an additional 24 hours at 37° C. Culture medium was removed from the culture plates by gentle inversion. Cells were fixed in 4% paraformaldehyde in 1×phosphate buffered saline-calcium magnesium free (PBS-CMF) for 15 minutes at room temperature, washed 3 times for 5 minutes each in 1×PBS-CMF. Cells were permeabilized in immunofluorescence (IF) blocking buffer (Cell Signaling #12411) containing 0.3% Triton X100. Cells were washed 3 times for 5 minutes each in 1×PBS-CMF and incubated in estrogen receptor α (D6R2W) rabbit primary antibody (Cell Signaling #13258) diluted 1:300 in IF antibody dilution buffer (Cell Signaling #12378). Cells were washed 3 times for 5 minutes each in 1×PBS-CMF and stained with goat anti-rabbit (Biotium #CF770) secondary antibody diluted 1:2000 in IF antibody dilution buffer and normalizing stain CellTag 700 diluted 1:500 (Licor #926-41090). ER protein expression was assessed by the Licor Odyssey CLx imaging system using Image Studio v5.2. Data is processed utilizing GraphPad Prism 7 by subtracting background from the vehicle and setting the vehicle to 100% ER activity, followed by comparing treated samples to vehicle.
as §1

| SMILES | IC50 [1] [nM] | DC50 [2] [nM] | % Estrogen Receptor Remaining [2] |
| --- | --- | --- | --- |
| Cc1cc(F)cc(C)c1C(=O)c1sc2c(F)c(O)ccc2c1Oc1ccc(OC2CCN(CCCF)C2)cc1 (stereo in doubt) [Compound 112, (R)-(4-fluoro-2,6-dimethylphenyl)(7-fluoro-3-(4-((1-(3-fluoropropyl)pyrrolidin-3-yl)oxy)phenoxy)-6-hydroxybenzo[b]thiophen-2-yl)methanone] | < 1000 | < 1000 | **** (**** denotes 0-0% Estrogen Receptor remaining) |
| Cc1cc(F)cc(C)c1C(=O)c1sc2cc(O)c(F)cc2c1Oc1ccc(OC2CCN(CCCF)C2)cc1 (stereo in doubt) [Compound 113, (R)-(4-fluoro-2,6-dimethylphenyl)(5-fluoro-3-(4-((1-(3-fluoropropyl)pyrrolidin-3-yl)oxy)phenoxy)-6-hydroxybenzo[b]thiophen-2-yl)methanone] | < 1000 | < 1000 | **** (**** denotes 0-0% Estrogen Receptor remaining) |
| Cc1cc(F)cc(C)c1C(=O)c1sc2cc(O)ccc2c1Oc1ccc(O[C@H]2CCN(CCCF)C2)cc1 [Compound 100, (S)-(4-fluoro-2,6-dimethylphenyl)(3-(4-((1-(3-fluoropropyl)pyrrolidin-3-yl)oxy)phenoxy)-6-hydroxybenzo[b]thiophen-2-yl)methanone] | < 1000 | < 1000 | **** (**** denotes 0-0% Estrogen Receptor remaining) |
| Cc1cc(F)cc(C)c1C(=O)c1sc2cc(O)ccc2c1Oc1ccc(O[C@H]2CCNC2)cc1 [Compound 101, (S)-(4-fluoro-2,6-dimethylphenyl)(6-hydroxy-3-(4-(pyrrolidin-3-yloxy)phenoxy)benzo[b]thiophen-2-yl)methanone] | < 1000 | < 1000 | *** |
| Cc1cc(F)cc(C)c1C(=O)c1sc2cc(O)ccc2c1Oc1ccc(O[C@@H]2CCN(CCCF)C2)cc1 [Compound 102, (R)-(4-fluoro-2,6-dimethylphenyl)(3-(4-((1-(3-fluoropropyl)pyrrolidin-3-yl)oxy)phenoxy)-6-hydroxybenzo[b]thiophen-2-yl)methanone] | < 1000 | < 1000 | **** (**** denotes 0-0% Estrogen Receptor remaining) |
| CCNCCc1ccc(Oc2c(C(=O)c3c(C)cc(F)cc3C)sc3cc(C(=O)O)ccc23)cc1 [Compound 106, 3-(4-(2-(ethylamino)ethyl)phenoxy)-2-(4-fluoro-2,6-dimethylbenzoyl)benzo[b]thiophene-6-carboxylic acid] | < 1000 | < 1000 | *** |
| Cc1cc(F)cc(C)c1C(=O)c1sc2cc(O)ccc2c1-c1ccc(O[C@H]2CCN(CCCF)C2)cc1 [Compound 108, (S)-(4-fluoro-2,6-dimethylphenyl)(3-(4-((1-(3-fluoropropyl)pyrrolidin-3-yl)oxy)phenyl)-6-hydroxybenzo[b]thiophen-2-yl)methanone] | < 50000 | < 1000 | ** |
| Cc1cc(F)cc(C)c1C(=O)c1sc2cc(O)ccc2c1-c1ccc(OCCN2CCCC2)cc1 [Compound 109, (4-fluoro-2,6-dimethylphenyl)(6-hydroxy-3-(4-(2-(pyrrolidin-1-yl)ethoxy)phenyl)benzo[b]thiophen-2-yl)methanone] | < 1000 | < 1000 | *** |
| Cc1cc(F)cc(C)c1C(=O)c1sc2cc(O)ccc2c1-c1ccc(O[C@@H]2CCN(CCCF)C2)cc1 [Compound 110, (R)-(4-fluoro-2,6-dimethylphenyl)(3-(4-((1-(3-fluoropropyl)pyrrolidin-3-yl)oxy)phenyl)-6-hydroxybenzo[b]thiophen-2-yl)methanone] | < 1000 | < 1000 | *** |
| Cc1cc(F)cc(C)c1C(=O)c1sc2cc(O)ccc2c1Oc1ccc(OCCN2CCC(CCCF)C2)cc1 (stereo not shown) [Compound 115, (4-fluoro-2,6-dimethylphenyl)(3-(4-(2-(3-(3-fluoropropyl)pyrrolidin-1-yl)ethoxy)phenoxy)-6-hydroxybenzo[b]thiophen-2-yl)methanone] | – | < 1000 | ** |
| Cc1cc(F)cc(C)c1C(=O)c1sc2cc(S(N)(=O)=O)ccc2c1Oc1ccc(O[C@H]2CCN(CCCF)C2)cc1 [Compound 116, (S)-2-(4-fluoro-2,6-dimethylbenzoyl)-3-(4-((1-(3-fluoropropyl)pyrrolidin-3-yl)oxy)phenoxy)benzo[b]thiophene-6-sulfonamide] | – | < 1000 | **** (**** denotes 0-0% Estrogen Receptor remaining) |
